Experimental data as given in patent US12350260B2 (priority 2019, dated 2025).
Several values for one entry are separate records, joined by “and”; a condition that tells them apart may be missing. Equal values may be shown once.

Assays:
[1] = test system: co-cultured sensory neurons and keratinocytes; assay type: cell-based, rat DRG neurons, human keratinocytes
sensory neurons = assay type: cell-based, rat
[2] = not told; cited from earlier work
[3] = test system: co-cultured DRG neurons and keratinocytes; assay type: cell-based, rat DRG neurons, human keratinocytes
PAR-2 [4] = molecular target: T1, PAR-2 (Homo sapiens, UniProt P55085); settings: cited from earlier work
[5] = in vivo, cited from earlier work
PAR-2 [6] = assay type: cell-based, rat
DRG neurons = assay type: cell-based, rat
[7] = test system: primary human epidermal keratinocytes; assay type: cell-based
PAR-2 [8] = molecular target: T1, PAR-2; settings: cited from earlier work; remark: listed apart in the source

T1 sequence (P55085 26-397): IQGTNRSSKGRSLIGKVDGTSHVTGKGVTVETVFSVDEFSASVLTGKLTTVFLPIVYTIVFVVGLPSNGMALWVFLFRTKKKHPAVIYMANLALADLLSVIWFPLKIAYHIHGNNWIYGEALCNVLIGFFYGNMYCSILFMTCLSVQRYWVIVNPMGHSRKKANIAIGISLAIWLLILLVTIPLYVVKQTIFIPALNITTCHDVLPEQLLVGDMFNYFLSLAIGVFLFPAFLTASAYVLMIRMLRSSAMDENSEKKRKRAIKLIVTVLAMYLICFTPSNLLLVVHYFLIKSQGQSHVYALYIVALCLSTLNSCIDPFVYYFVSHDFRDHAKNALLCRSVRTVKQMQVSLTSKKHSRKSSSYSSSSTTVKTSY

Molecule: Cc1c(C(=O)Nc2cccc(C(F)(F)F)c2)cc(-c2ccccc2)n1CCCN1CCOCC1 [HC-067047]
- PbTx-1-induced SP release with pre-treatment (normalized levels) [1]: 58.7±14.5% and 41.3±14.5%
- normalized amplitude values in each phase (FIGS. 9B, 9D, 9F) (sensory neurons): No significant modification
- normalized percentage of cells responding to PbTx-1 with the first peak (sensory neurons): 59.4±11.5%
- normalized percentage of cells responding to PbTx-1 with the plateau (sensory neurons): 35.0±16.1%
- normalized percentage of cells responding to PbTx-1 with the second peak (sensory neurons): 35.6±11.5%

Molecule: CC(C)C[C@H](NC(=O)[C@H](Cc1ccccc1)NC(=O)OCc1ccccc1)C(=O)C=O [Z-FL-COCHO, Cbz-Phe-Leu-COCHO]
- PbTx-1-induced SP release, decreased to (% of PbTx-1 alone) [1]: 80.4±4.1%
- normalized percentage of cells responding to PbTx-1 with the first peak (sensory neurons): 48.2±11.1%
- normalized percentage of cells responding to PbTx-1 with the plateau (sensory neurons): 41.0±13.8%
- normalized percentage of cells responding to PbTx-1 with the second peak (sensory neurons): 45.2±11.1%
- cell permeability [2]: poorly cell-permeant
- P-CTX-2-induced SP release, reduced to (% of P-CTX-2 alone) [3]: 13.1±6.1%

Molecule: CC[C@H](C)[C@H](NC(=O)[C@H](CC1CCCCC1)NC(=O)c1ccno1)C(=O)N1CCC2(CCc3ccccc32)CC1 [GB88]
- PAR-2 calcium signaling / calcium mobilization (PAR-2 [4]): inhibit

Molecule: OC[C@@H](O)[C@@H](O)[C@H](O)[C@H](O)CO [mannitol]
- effectiveness in severe cases of poisoning supported early ([5]; iv): effectiveness
- effectiveness in non-severe forms of intoxication [5]: not effective

Molecule: NC1=N[C@H](O)[C@H]2[C@H]3O[C@]4(O)O[C@@H]([C@@H](O)[C@@]2(N1)[C@@H]4O)[C@]3(O)CO [TTX, Tetrodotoxin]
- membrane expression of PAR-2 (PAR-2 [6]): 95.3±4.9% and 92.7±1.3%
- normalized amplitude of the second peak (sensory neurons): 3.4±3.4%
- normalized percentage of cells responding to PbTx-1 with the first peak (sensory neurons): 65.20±14.50% and 34.40±21.24%
- normalized amplitude of the first peak in responding cells (% of P-CTX-2 alone) (DRG neurons): 53.6±8.0% and 47.8±7.2%
- normalized amplitude values of the plateau in responding cells (% of P-CTX-2 alone) (DRG neurons): 53.2±1.3% and 84.8±6.6%
- normalized percentage of cells responding with the first peak (% of P-CTX-2 alone) (DRG neurons): 34.9±13.4% and 41.6±12.5%
- normalized second peak amplitude in responding cells (% of P-CTX-2 alone) (DRG neurons): 33.7±3.5% and 61.9±16.1%
- P-CTX-2-induced SP release, reduced to (% of P-CTX-2 alone) [3]: 29.3±7.3% and 53.1±11.3%
- average ratio of the P-CTX-2-mediated calcium signal (ΔF/F0) [7]: 0.34±0.11
- decrease of the average ratio of the P-CTX-2-mediated calcium signal [7]: approximately 70%

Molecule: CCc1nn(CCCN2CCN(c3cccc(Cl)c3)CC2)c(=O)n1CCOc1ccccc1 [Nefazodone]
- ERK1/2 phosphorylation (PAR-2 [8]): inhibit
- PAR-2 calcium signaling / calcium mobilization (PAR-2 [4]): inhibit

Molecule: CCOC(=O)N1CCC(=C2c3ccc(Cl)cc3CCc3cccnc32)CC1 [Loratadine]
- ERK1/2 phosphorylation (PAR-2 [8]): inhibit
- PAR-2 calcium signaling / calcium mobilization (PAR-2 [4]): inhibit

Molecule: CCC(C)[C@H](NC(=O)[C@H](CC1CCCCC1)NC(=O)c1ccno1)C(=O)N1CCC2(CCc3ccccc32)CC1 (some centres unmarked) [GB83]
- PbTx-1-induced SP release with pre-treatment (normalized levels) [1]: 47±8.2%
- PbTx-1-induced SP release, decreased to (% of PbTx-1 alone) [1]: 40.9±7.4%
- inhibitory effect on PbTx-1-induced SP release [1]: 45.3±6.9%
- normalized percentage of cells responding to PbTx-1 with the first peak (sensory neurons): 75.7±7.28%
- normalized percentage of cells responding to PbTx-1 with the plateau (sensory neurons): 37.7±7.7%
- normalized percentage of cells responding to PbTx-1 with the second peak (sensory neurons): 48.9±7.38%
- normalized amplitude of the first peak in responding cells (% of P-CTX-2 alone) (DRG neurons): 31.2±4.2%
- normalized amplitude values of the plateau in responding cells (% of P-CTX-2 alone) (DRG neurons): 50.1±8.7%
- normalized percentage of cells responding with a second peak (% of P-CTX-2 alone) (DRG neurons): 16.7±4.1%
- normalized percentage of cells responding with the first peak (% of P-CTX-2 alone) (DRG neurons): 34.5±10.5%
- normalized percentage of neurons responding with a plateau (compared to P-CTX-2 alone) (DRG neurons): 7.9±3.3%
- normalized second peak amplitude in responding cells (% of P-CTX-2 alone) (DRG neurons): 27.2±5.0%
- P-CTX-2-induced SP release, reduced to (% of P-CTX-2 alone) [3]: 15.0±7.9%
- PAR-2 calcium signaling / calcium mobilization (PAR-2 [4]): inhibit

Molecule: Cl.Cn1cc(C2=C(c3c4n(c5ccccc35)CCC(CN)C4)C(=O)NC2=O)c2ccccc21 (centres unmarked) [BimX, Bisindolylmaleimide X hydrochloride]
- PbTx-1-induced SP release with pre-treatment (normalized levels) [1]: 37.4±5.9%
- normalized amplitude values in each phase (FIGS. 9B, 9D, 9F) (sensory neurons): No significant modification
- normalized percentage of cells responding to PbTx-1 with the first peak (sensory neurons): did not decrease
- normalized percentage of cells responding to PbTx-1 with the second peak (sensory neurons): 67.7±7.5%

Molecule: COc1ccc(CCN2CCC(Nc3nc4ccccc4n3Cc3ccc(F)cc3)CC2)cc1 [Astemizole]
- ERK1/2 phosphorylation (PAR-2 [8]): inhibit
- PAR-2 calcium signaling / calcium mobilization (PAR-2 [4]): inhibit

Molecule: C1CCC[C@H]2CCCN3CC[C@@H](CCCCCC[C@@H]4CCCN5CC[C@@H](CC1)O[C@@H]45)O[C@@H]23 [Xestospongin C]
- PbTx-1-induced SP release with pre-treatment (normalized levels) [1]: 35.5±9.7%
- normalized amplitude values in each phase (FIGS. 9B, 9D, 9F) (sensory neurons): No significant modification
- normalized percentage of cells responding to PbTx-1 with the first peak (sensory neurons): did not decrease
- normalized percentage of cells responding to PbTx-1 with the second peak (sensory neurons): 62.5±14.7%

Molecule: 2-aminothiazol-4-yl-LIGRL-NH2 ({2‑aminothiazol‑4‑yl}-LIGRL-NH2)
- ERK1/2 phosphorylation (PAR-2 [8]): inhibit
- PAR-2 calcium signaling / calcium mobilization (PAR-2 [4]): inhibit

Molecule: COc1ccccc1OCCNCC(O)COc1cccc2[nH]c3ccccc3c12 (centres unmarked) [Carvedilol]
- ERK1/2 phosphorylation (PAR-2 [8]): inhibit
- PAR-2 calcium signaling / calcium mobilization (PAR-2 [4]): inhibit
